Experimental data published in patent EP1001774B1, “USE OF PHOSPHOLAMBAN INHIBITORS FOR INCREASING CORONARY FLOW” (ORION CORPORATION, priority 1997, dated 1999).
Entries after “also recorded” stand apart in the source; their conditions may differ.

Experiments:
PLB[1-36 a.a.] = target: T1, PLB[1-36 a.a.] (Homo sapiens, UniProt P26678); assay: Circular dichroism (CD) spectroscopy, binding to the cytosolic part of phospholamban; details: 50 µM in water, Fig. 1
T1 construct: N-terminal fragment of human phospholamban (PLB [1-36 a.a.]); made in house; host or cells: chemical peptide synthesis (no expression host)
T1 sequence (P26678 1-36 limits assumed): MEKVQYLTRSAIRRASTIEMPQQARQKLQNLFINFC
Method: (§1) Both the 36 amino acid N-terminal fragment of human phospholamban (PLB [1-36 a.a.]) and the 36 amino acid N-terminal fragment of double phosphorylated human phospholamban (PLB [1-36 a.a.](Ser16PO3-, Thr17PO3-)) were obtained by peptide synthesis. The peptides were purified by reverse phase HPLC, analysed for homogenity by mass spectrometry and were found pure at 97 %. The peptides were lyophilized and then resuspended in water at the final concentration of 0.1 mM, for CD analysis. The pH of both solutions was between 3 and 4 and was not further adjusted. Compound of Example 1c was solved in water at a final concentration of 0.1 mM. The pH was adjusted at 7.2 by adding 1 N NaOH.
(§2) Circular dichroism spectra were acquired at 24 °C on samples of 100 µl. The spectra were recorded on a Jasco J-720 spectropolarimeter using a 1 mm path-length quartz cuvette. The band width was 1 nm, the sensitivity 20 mdeg, the step resolution 0.5 nm, the response time 0.5 sec, and the scan speed 20 nm/min (from 250 to 190 nm). The spectra were expressed in [θ] x 10^-3 x degrees x cm^2 x dmol^-1.

[1] = tested on: endothelial cells of the coronary vessels; assay: Coronary flow in freely beating isolated heart with and without Triton x 100 destruction of endothelial cells; set-up: species or system guinea-pig; details: 0.3 - 30 µM; Figures 4A and 4B
Method: Substance P, an endothelial-dependent vasodilator, was used as a reference compound. Triton x 100 was used to destroy the endothelial cells of the coronary vessels.
The experiment was carried out under constant pressure condition (50 mmHg) on freely beating heart. Coronary flow (ml / min) was continuously recorded by an electromagnetic flow meter with a flow probe inserted above the aortic cannula.
After 15 min baseline recording a bolus dose of substance P (0.1 µM / 0.3 ml) was added to the perfusion buffer via a side branch of the aortic cannula (Figure 4B). The addition of substance P was repeated twice before the injection of triton x 100 (0.05% / 0.2 ml) was given via a needle inserted into the cannula just above the aorta. After 85 min of triton x 100 injection a control dose of substance P was added twice to the perfusion buffer in order to check if the endothelial cells has destroyed. Thereafter the concentration range of 0.3 - 30 µM of the compound of Example 1c was tested. The vehicle concentration (0.1% DMSO) was kept constant throughout the experiment. A control experiment is shown in Figure 4A where the effect of Example 1 c is seen at the same concentration range when the […] is not disrupted by Triton x 100.

coronary arteries = assay: Coronary flow in isolated paced heart (Langendorff, constant pressure); set-up: species or system guinea-pig; details: 0.3 - 30 µM; six hearts paced at 250 beats/min; Figure 3A
Method: Guinea-pigs of either sex weighing 300-400 g were used in the study. After the guinea-pig was sacrificed by a blow on the skull and decapitated the heart was rapidly excised. The heart was then rinsed in cold oxygenated perfusion buffer. A cannula was inserted into the aorta and secured with a ligature. Retrograde perfusion began as soon as the heart was placed in a thermostatically controlled moist chamber of the Langendorff apparatus. Modified Tyrode solution (37 °C), equilibrated in a thermostatically controlled bulb oxygenator with carbogen (95 % O2 and 5% CO2) was used as a perfusion buffer. The composition of the Tyrode solution was (in mM): NaCl 135; MgCl2 x 6H2O 1; KCl 5; CaCl2 x 2H2O 2; NaHCO3 15; Na2HPO4 x 2H2O 1; glucose 10; pH 7.3-7.4. The experiments were carried out under constant pressure condition (50 mmHg). After a short prestabilization (10 min) a latex balloon (size 4) was carefully placed into the left ventricle through the left pulmonary vein and the left atrium. The latex balloon was attached to a stainless-steel cannula coupled with a pressure transducer. The latex balloon, the cannula and the chamber of the pressure transducer were filled with ethylene glycol / water (1:1) mixture avoiding any air-bubble. The isovolumetric left ventricular pressure was recorded through the pressure transducer. The maximal positive and negative derivatives of the left ventricular pressure were calculated by using the digitized pressure signals. At the beginning of the experiment, the volume of the balloon was adjusted to obtain a diastolic pressure of approximately 5 mmHg. Coronary flow (ml/min) was continuously recorded by an electromagnetic flow meter with a flow probe inserted above the aortic cannula. The heart was paced at 250 beats/min with a coaxial electrode localized on the surface of the right atrium. Before starting the experiment, the heart was allowed to stabilise further for 30 - 50 min with vehicle (0.1% DMSO) to reach a stable coronary flow.
After 15 min baseline recording various concentrations of the test compound of Example 1c were added to the perfusion buffer at 15 min intervals. The concentration range of 0.3 - 30 µM was tested. The vehicle concentration (0.1% DMSO) was kept constant throughout the experiment.

[2] = target: T2, PLB[1-36 a.a.](Ser16PO3-, Thr17PO3-) (Homo sapiens, UniProt P26678); assay: Circular dichroism (CD) spectroscopy, binding to double phosphorylated phospholamban fragment; details: 50 µM in water, Fig. 1
T2 construct: (PLB [1-36 a.a.](Ser16PO3-, Thr17PO3-)); made in house; host or cells: chemical peptide synthesis (no expression host)
T2 sequence (P26678 1-36): T1 sequence (P26678 1-36 limits assumed)
Method: as §1, §2

phospholamban = target: T3, phospholamban (Cavia porcellus, UniProt A0A286XLC6); assay: Calcium uptake assay (fluo-3) in SR vesicles from cardiac tissue; format: biochemical, guinea-pig; details: 50 and 100 µM; Figure 2A; three experiments per group
T3 construct: calcium uptake into the SR vesicles prepared from cardiac tissue; from tissue; host or cells: guinea-pig heart (ventricular myocardium), SR vesicle preparation
T3 sequence (A0A286XLC6 1-52): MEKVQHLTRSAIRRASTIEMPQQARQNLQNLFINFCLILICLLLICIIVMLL
From the text: (§3) The direct binding of a compound to the phospholamban protein can be ascertained by the circular dichroism (CD) spectroscopy. The methods for determining whether a compound relieves the inhibitory effect of phospholamban on SR Ca^2+-ATPase by direct binding to the phospholamban protein, i.e. is a phospholamban inhibitor, are illustrated in detail in the experimental section.
(§4) The effect on phospholamban of the compounds used in the invention was verified by measuring its effects on calcium uptake into the SR vesicles prepared from cardiac tissue and into vesicles prepared from fast skeletal muscle (psoas m.). […] The methods are described below in detail.
(§5) Guinea pigs (10-12) were decapited. Their hearts or the psoas muscles were excised, washed in ice-cold 0.9 % NaCl and cut into pieces in a buffer containing 20 mM Tris-maleate, 0.3 M sucrose, pH 7.0. Thereafter tissue pieces were homogenized with Polytron and further with Potter (10 strokes). The homogenate was centrifugated at 1000 g for 15 min at 4 °C. The supernatant was collected and the pellet was resuspended into 5 ml of the buffer (20 mM Tris-maleate, 0.3 M sucrose, pH 7.0) and recentrifugated at 1000 g for 10 min at 4 °C. The obtained supernatant was combined with the earlier collected supernatant and centrifugated once again at 10 000 g for 20 min at 4 °C. The final supernatant was filtered into a bottle equipped with a magnetic stirrer. KCl was added to the filtered supernatant to achieve the final concentration of 0.6 M (at 4 °C). The obtained solution was centrifugated at 100 000 g for 60 min at 4 °C. The pellet was suspended in 5 ml of the buffer containing 20 mM Tris-maleate, 0.3 M sucrose, pH 7.0 and centrifugated at 100 000 g for 60 min at 4 °C. The obtained pellet was suspended in 5 ml of buffer containing 20 mM Tris-maleate, 0.3 M sucrose, 0.1 M KCI, pH 7.0 and stored at -80 °C until use. The protein concentration was also measured in order to standardise the separately prepared vesicle preparations.
(§6) In the calcium uptake assay, the fluorescent indicator, fluo-3 was used to detect the decrease of the extravesicular Ca^2+-concentration, when the SR Ca^2+ATPase was transferring Ca^2+ from the extravesicular space into the SR-vesicles.
(§7) The SR-vesicles obtained above (50 µg protein/ml) were preincubated with or without the test compound at 37 °C for 5 min in the assay buffer containing 40 mM imidazole, 95 mM KCI, 5 mM NaN3, 5 mM MgCl2, 0.5 mM EGTA, 5 mM potassium oxalate, 2 µM ruthenium red, 5 µM fluo-3, pH 7.0. The free calcium was adjusted to 0.1 µM or to 0.04 µM by CaCl2. The reaction was initiated by adding ATP (5 mM). The final reaction volume was 1.5 ml. The fluorescence of reaction mixture was measured for 3 min by using the excitation and emission wavelengths of 510 nm and 530 nm, respectively.

SR Ca^2+-ATPase = assay: Calcium uptake assay (fluo-3) in SR vesicles from fast skeletal muscle (psoas m.), which contain no phospholamban; format: biochemical, guinea-pig; details: 50 and 100 µM; Figure 2B; three experiments per group
From the text: as §3, §4, §5, §6, §7

Ca^2+ uptake rate into the fast skeletal muscle SR vesicles (SR Ca^2+-ATPase): did not change the calcium uptake
SMILES: Cc1c(Cc2ccccc2)c(=O)oc2cc(OCc3nnn[nH]3)cc(OCc3nnn[nH]3)c12 [Example 1c, 3-Benzyl-5,7-bis[(1H -tetrazol-5-yl)methoxy]-4-methyl-2H-1-benzopyran-2-one]
interaction with PLB[1-36 a.a.] (CD spectra) (PLB[1-36 a.a.]): forms a complex with PLB at their N-terminal domain; also recorded: interacts with the cytosolic part of phospholamban PLB[1-36 a.a.] | mechanism of the vasodilatory effect (coronary flow with / without Triton x 100) [1]: due to an endothelial-mediated mechanism | coronary flow (coronary arteries): increase in coronary flow | interaction with PLB[1-36 a.a.](Ser16PO3-, Thr17PO3-) (CD spectra) [2]: does not interact or interacts weakly with the phosphorylated phospholamban | Ca^2+ uptake rate into the cardiac SR vesicles (phospholamban): accelerated the calcium uptake into the cardiac SR vesicles
